Source: patent publication US7888363B2, “Viral polymerase inhibitors” (Boehringer Ingelheim International GmbH, priority 2003, dated 2011)

molecular target: hepatitis C virus RNA dependant polymerase (NS5B) (Hepatitis C virus genotype 1b, UniProt P26663); experiment: Inhibition of NS5B RNA dependent RNA polymerase activity; format: biochemical; settings: Table 1; HCV NS5B polymerase
Description: A suitable assay is described in the examples.
Inhibition of NS5B RNA Dependent RNA Polymerase Activity
The compounds of the invention were tested for inhibitory activity against the hepatitis C virus RNA dependant polymerase (NS5B), according to protocol described in WO 03/010141

Sequence of hepatitis C virus RNA dependant polymerase (NS5B) (P26663 2420-3010): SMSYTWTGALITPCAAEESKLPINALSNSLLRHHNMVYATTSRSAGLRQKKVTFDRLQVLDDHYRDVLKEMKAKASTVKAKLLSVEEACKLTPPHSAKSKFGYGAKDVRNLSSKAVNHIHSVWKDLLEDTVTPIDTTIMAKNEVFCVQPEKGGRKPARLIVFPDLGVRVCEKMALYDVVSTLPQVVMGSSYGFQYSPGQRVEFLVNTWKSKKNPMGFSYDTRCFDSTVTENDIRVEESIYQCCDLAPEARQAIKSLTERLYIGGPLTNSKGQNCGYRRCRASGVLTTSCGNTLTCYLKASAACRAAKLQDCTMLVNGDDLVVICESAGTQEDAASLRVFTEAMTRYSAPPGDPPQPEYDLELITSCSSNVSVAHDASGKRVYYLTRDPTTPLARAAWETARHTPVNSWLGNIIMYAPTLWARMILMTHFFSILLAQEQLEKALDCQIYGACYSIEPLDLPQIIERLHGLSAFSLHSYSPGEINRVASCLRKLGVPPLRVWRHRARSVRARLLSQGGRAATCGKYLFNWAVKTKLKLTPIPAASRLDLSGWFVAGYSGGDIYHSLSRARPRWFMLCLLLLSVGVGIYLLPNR

O=C(O)c1ccc2c(C3CCCCC3)c(-c3ccoc3)n(CC(=O)N3C[C@@H](O)C[C@H]3C(=O)O)c2c1 [Example 1128] and O=C(O)c1ccc2c(C3CCCCC3)c(-c3ccoc3)n(CC(=O)N3CCC(C(=O)O)CC3)c2c1 [Example 1058] cannot be ordered by IC50: under 200 nM for the first, under 200 nM for the second.

CN(CC(=O)O)C(=O)Cn1c(-c2ccoc2)c(C2CCCCC2)c2ccc(C(=O)O)cc21 [Example 1072] and CC(C)[C@@H](C(=O)O)N(C)C(=O)Cn1c(-c2ccoc2)c(C2CCCCC2)c2ccc(C(=O)O)cc21 [Example 1129] cannot be ordered by IC50: under 200 nM for the first, under 200 nM for the second.

O=C(Cn1c(-c2ccoc2)c(C2CCCCC2)c2ccc(C(=O)O)cc21)N[C@@H](Cc1ccc(O)cc1)C(=O)O [Example 1055] and CCC(NC(=O)Cn1c(-c2ccoc2)c(C2CCCCC2)c2ccc(C(=O)O)cc21)C(=O)O (stereo not drawn) [Example 1119] cannot be ordered by IC50: under 200 nM for the first, under 200 nM for the second.

First: CCN(CCOC)C(=O)Cn1c(-c2ccoc2)c(C2CCCCC2)c2ccc(C(=O)O)cc21 [Example 1017]
Second: CCN(CCN(C)C)C(=O)Cn1c(-c2ccoc2)c(C2CCCCC2)c2ccc(C(=O)O)cc21 [Example 1022]
The IC50 of the first is lower: under 200 nM for the first, 200 to 1000 nM for the second.

O=C(Cn1c(-c2ccoc2)c(C2CCCCC2)c2ccc(C(=O)O)cc21)NNC(=O)NC[C@H]1CC[C@H](C(=O)O)CC1 [Example 1076] and O=C(O)CCNC(=O)Cn1c(-c2ccoc2)c(C2CCCCC2)c2ccc(C(=O)O)cc21 [Example 1073] cannot be ordered by IC50: under 200 nM for the first, under 200 nM for the second.

First: O=C(O)c1ccc2c(C3CCCC3)c(-c3ccccn3)n(CC(=O)N3CCCC3)c2c1 [Example 1086]
Second: CN(C)C(=O)Cn1c(-c2ccsc2)c(C2CCCCC2)c2ccc(C(=O)O)cc21 [Example 1028]
The IC50 of the first is higher: 200 to 1000 nM for the first, under 200 nM for the second.

same assay, conditions: Table 2; HCV NS5B polymerase

O=C(NS(=O)(=O)C(Cl)(Cl)Cl)c1ccc2c(C3CCCCC3)c(-c3ccoc3)n(CC(=O)N3CCOCC3)c2c1 [Example 2045] and CS(=O)(=O)c1ccccc1S(=O)(=O)NC(=O)c1ccc2c(C3CCCCC3)c(-c3ccoc3)n(CC(=O)N3CCOCC3)c2c1 [Example 2038] cannot be ordered by IC50: under 200 nM for the first, under 200 nM for the second.

same assay, conditions: Table 3; HCV NS5B polymerase

With Nc1nc(-c2ccc(NC(=O)C3(NC(=O)c4ccc5c(C6CCCC6)c(-c6ccoc6)n(CC(=O)N6CCOCC6)c5c4)CCCNC3)cc2)cs1 (stereo not drawn) [Example 3001] the IC50 was under 200 nM.

same assay, conditions: Table 4; class ranges

CN1CCN(C(=O)Cn2c(-c3ccoc3)c(C3CCCCC3)c3ccc(C(=O)NC4CCCC4)cc32)CC1 [Example 4008] and CN(C)CCNC(=O)c1ccc2c(C3CCCCC3)c(-c3ccoc3)n(CC(=O)N3CCN(C)CC3)c2c1 [Example 4025] fall in the same range of IC50: 200 to 1000 nM for the first, 200 to 1000 nM for the second.

First: COC(=O)C1(NC(=O)c2ccc3c(C4CCCCC4)c(-c4ccoc4)n(CC(=O)N4CCOCC4)c3c2)CCCCC1 [Example 4076]
Second: O=C(O)C=Cc1ccc2nc(C3(NC(=O)c4ccc5c(C6CCCC6)c(-c6ccoc6)n(CC(=O)N6CCOCC6)c5c4)CCC3)[nH]c2c1 [Example 4070]
The IC50 of the first is higher: 200 to 1000 nM for the first, under 200 nM for the second. The second is the more potent here.

First: CNC(=O)c1ccc2c(C3CCCCC3)c(-c3ccoc3)n(CC(=O)N(C)C)c2c1 [Example 4056]
Second: COc1ccc([C@@H](C)NC(=O)c2ccc3c(C4CCCCC4)c(-c4ccoc4)n(CC(=O)N(C)C)c3c2)cc1 [Example 4059]
The IC50 of the first is higher: 200 to 1000 nM for the first, under 200 nM for the second. The second is the more potent here.

First: CN1CCN(C(=O)Cn2c(-c3ccoc3)c(C3CCCCC3)c3ccc(C(=O)NCc4ccc(S(C)(=O)=O)cc4)cc32)CC1 [Example 4041]
Second: O=C(NC1(c2csc(Nc3ccccc3)n2)CCC1)c1ccc2c(C3CCCCC3)c(-c3ccoc3)n(CC(=O)N3CCC(N4CCCC4)CC3)c2c1 [Example 4101]
The IC50 of the first is lower: under 200 nM for the first, 200 to 1000 nM for the second. The first is the more potent here.

same assay, conditions: Table 5; HCV NS5B polymerase

With CN(C)C(=O)CCn1c(-c2ccoc2)c(C2CCCCC2)c2ccc(C(=O)O)cc21 [Example 5003] the IC50 was 1000 to 10000 nM.

same assay, conditions: Table 7; class ranges

CNC(=O)c1ccc2c(c1)c(C1CCCCC1)c(-c1ccoc1)n2CC(=O)N1CCC(N2CCCC2)CC1 [Example 7034] and O=C(NCC1CCCO1)c1ccc2c(c1)c(C1CCCCC1)c(-c1ccoc1)n2CC(=O)N1CCC(N2CCCC2)CC1 (stereo not drawn) [Example 7016] fall in the same range of IC50: 1000 to 10000 nM for the first, 1000 to 10000 nM for the second.

With Cc1oc(-c2ccc(NC(=O)c3ccc4c(c3)c(C3CCCCC3)c(-c3ccoc3)n4CC(=O)N3CCC(N4CCCC4)CC3)cc2)cc1C(=O)O [Example 7048] the IC50 was 1000 to 10000 nM.
